The results in this text go back to patent US20240360177A1, “PEPTIDES WITH ANTIMICROBIAL ACTIVITIES” (priority 2021, published 2024).

The test system of one data set is C. albicans. The conditions noted are these: ATCC 90028 or 90029; 24 hrs.
The subject of a further data set is C. glabrata. The conditions noted are these: ATCC 90030; 24 hrs.
The next data set deals with C. parapsilosis. Conditions: ATCC 22019; 24 hrs.
The test system of a further data set is C. krusei. Conditions: MMX 7135; 24 hrs.
In a further data set the test system is C. auris. The conditions noted are these: CDC 386; 24 hrs.
The test system of a further data set is C. tropicalis. Conditions: ATCC 90874; 24 hrs.
A further data set deals with C. dubliniensis. Conditions: ATCC MYA-578; 24 hrs.
The next data set concerns C. neoformans. The conditions noted are these: ATCC 90112; 72 hrs.
The test system of the next data set is C. gattii. Conditions: ATCC MYA-4093; 72 hrs.
The test system of the next data set is Candida spp. Conditions: 15 strains (Table 10).
Data set [1] can be described thus: Cytotoxicity in HepG2 cells, intracellular ATP assay. The conditions noted are these: human, EC50 cytotoxicity in HepG2, intracellular ATP assay, Table 16; 18-22 hrs exposure without FBS.

The structures appear in SMILES notation. Converted amounts (≈) assume the structure as drawn. Non-standard residues stand in square brackets, D forms with d. Residues, ends and D or L forms follow the SMILES beside them. hArg = N=C(N)NCCCC[C@H](N)C(=O)O A value given as a limit tells only on which side of the number the result lay.

As to `N=C(N)NCCCC[C@H](NC(=O)[C@@H](CCCNC(=N)N)NC(=O)[C@H](CCCCNC(=N)N)NC(=O)[C@@H](CCCNC(=N)N)NC(=O)[C@@H]1CCCN1C(=O)[C@H](CCCCNC(=N)N)NC(=O)[C@@H](CCCNC(=N)N)NC(=O)[C@H](CCCCNC(=N)N)NC(=O)[C@@H](CCCNC(=N)N)NC(=O)[C@@H]1CCCN1C(=O)[C@@H](CCCNC(=N)N)NC(=O)[C@H](CCCCNC(=N)N)NC(=O)[C@@H](CCCNC(=N)N)NC(=O)[C@@H]1CCCN1C(=O)[C@@H](CCCNC(=N)N)NC(=O)[C@H](CCCCNC(=N)N)NC(=O)[C@H](N)CCCNC(=N)N)C(N)=O` [SEQ ID NO: 88, r(Har)r-P-r(Har)r-P-r(Har)r(Har)-P-r(Har)r(Har)-NH2] (H-[dR][hArg][dR]P[dR][hArg][dR]P[dR][hArg][dR][hArg]P[dR][hArg][dR][hArg]-NH2), the “MIC C. albicans” value in the data set with C. albicans came out at 0.5 µg/mL (≈ 0.194 µM). For the same molecule, in the data set with C. glabrata, the “MIC C. glabrata” value worked out at 0.5 µg/mL (≈ 0.194 µM). Further, in the data set with C. parapsilosis, the “MIC C. parapsilosis” value came to 0.25 µg/mL (≈ 0.0969 µM). For the same molecule, the “MIC C. krusei” value against C. krusei worked out at 0.5 µg/mL (≈ 0.194 µM). Also, the “MIC C. auris” value with C. auris is 0.5 µg/mL (≈ 0.194 µM). In addition, the “MIC C. tropicalis” value against C. tropicalis was found to be 0.5 µg/mL (≈ 0.194 µM). In addition, the “MIC C. dubliniensis” value with C. dubliniensis is 0.5 µg/mL (≈ 0.194 µM). Moreover, the “MIC C. neoformans” value in the data set with C. neoformans is 0.5 µg/mL (≈ 0.194 µM). Besides, the “MIC C. gattii” value with C. gattii was determined as 0.5 µg/mL (≈ 0.194 µM). In addition, in the data set on Candida spp., the “MIC50 Candida species” value was 0.5 µg/mL (≈ 0.194 µM) and the “MIC90 Candida species” value stood at 1 µg/mL (≈ 0.388 µM). In data set [1], this molecule registered a half-maximal effective concentration (EC50) of over 300 µg/mL.

The term EC50 denotes the concentration at which the effect is half-maximal. Lower therefore signals an effect from little substance.
